Data reported in ChEMBL document CHEMBL1128977, “Antioxidant properties of nitrocaffeic acids” (Bioorg Med Chem Lett, 1996).

Tests used:
[1] = Superoxide anion (O2-) scavenging activity
[2] = molecular target: Xanthine dehydrogenase/oxidase (Homo sapiens, UniProt P47989); assay: Compound was evaluated for inhibition of xanthine oxidase; set-up: concentration or dose not given beside the values
[3] = Compound was evaluated for hydroxyl radical (OH) scavenging activity

Sequence of Xanthine dehydrogenase/oxidase (P47989 whole entry): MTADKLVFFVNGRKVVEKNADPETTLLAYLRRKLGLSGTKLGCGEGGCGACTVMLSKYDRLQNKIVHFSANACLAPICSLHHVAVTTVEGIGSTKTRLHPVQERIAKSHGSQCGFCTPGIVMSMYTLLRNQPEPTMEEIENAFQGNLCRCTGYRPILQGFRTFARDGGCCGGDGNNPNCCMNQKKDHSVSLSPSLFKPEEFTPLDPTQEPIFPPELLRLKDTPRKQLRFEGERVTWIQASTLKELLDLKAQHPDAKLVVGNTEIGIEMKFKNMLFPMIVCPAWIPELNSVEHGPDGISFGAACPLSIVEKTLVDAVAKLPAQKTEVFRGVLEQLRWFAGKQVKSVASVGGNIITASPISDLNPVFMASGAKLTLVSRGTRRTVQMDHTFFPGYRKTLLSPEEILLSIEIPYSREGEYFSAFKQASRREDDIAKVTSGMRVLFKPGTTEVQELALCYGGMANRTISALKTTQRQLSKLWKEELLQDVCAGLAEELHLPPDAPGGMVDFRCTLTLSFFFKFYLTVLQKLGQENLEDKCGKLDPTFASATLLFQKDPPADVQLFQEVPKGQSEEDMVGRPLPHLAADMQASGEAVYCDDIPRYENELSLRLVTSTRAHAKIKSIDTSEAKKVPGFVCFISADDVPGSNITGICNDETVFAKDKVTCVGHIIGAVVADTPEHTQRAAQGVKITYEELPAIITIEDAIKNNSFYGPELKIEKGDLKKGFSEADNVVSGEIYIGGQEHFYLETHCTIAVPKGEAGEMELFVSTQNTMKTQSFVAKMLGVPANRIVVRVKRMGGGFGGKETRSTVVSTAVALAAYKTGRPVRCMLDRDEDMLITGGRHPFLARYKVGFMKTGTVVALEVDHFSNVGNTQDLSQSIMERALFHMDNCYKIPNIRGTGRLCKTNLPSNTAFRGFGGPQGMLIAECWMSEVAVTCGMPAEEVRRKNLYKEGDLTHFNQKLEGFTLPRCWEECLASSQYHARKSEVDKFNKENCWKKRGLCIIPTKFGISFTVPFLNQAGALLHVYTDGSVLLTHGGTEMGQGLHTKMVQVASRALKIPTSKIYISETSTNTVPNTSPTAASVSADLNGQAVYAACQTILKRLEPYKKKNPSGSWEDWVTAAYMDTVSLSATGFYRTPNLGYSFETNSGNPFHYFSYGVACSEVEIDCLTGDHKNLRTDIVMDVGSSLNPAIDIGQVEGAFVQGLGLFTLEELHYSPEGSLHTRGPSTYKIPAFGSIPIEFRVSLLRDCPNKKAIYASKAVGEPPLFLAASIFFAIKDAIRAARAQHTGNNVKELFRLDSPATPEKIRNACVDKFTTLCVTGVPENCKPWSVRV

SMILES	IC50 [1] [µM]	Inhibition [2] [%]	IC50 [3] [µM]
O=[N+]([O-])c1cc(O)ccc1O	1000	12	85
O=C(O)/C=C/c1cc(O)c(O)cc1[N+](=O)[O-]	150	36	250
CC(=O)C(Cc1cc(O)c(O)c([N+](=O)[O-])c1)C(C)=O	500	–	300
O=C(O)/C=C/c1cc(O)c(O)c([N+](=O)[O-])c1	185	70	400
O=C(O)/C=C/c1ccc(O)c(O)c1[N+](=O)[O-]	35	61	425
O=[N+]([O-])c1cccc(O)c1O	250	5	180
O=[N+]([O-])c1ccc(O)c(O)c1 [4-Nitrocatechol]	250	9	130
O=C(O)/C=C/c1ccc(O)c(O)c1 [CAFFEIC ACID]	95	18	–
Oc1ccccc1O [CATECHOL]	30	5	–
